One test concerns HCV replicon. The note with it: cited from earlier work.
The test system of a further test is HBV in HepG2215 cells. The note with it: cited from earlier work.
The next test concerns hepatitis C virus. The conditions noted are these: patients, 1200 mg twice daily; cited from earlier work.
The next test concerns the target Human MRP2 (Homo sapiens (Human), UniProt Q92887). The test can be described thus: MRP2 transporter vesicle assay. In kind it is in vitro ADME. The method, then: Method 4: Measuring Hepatic Transporter Interactions […] […] MRP2 Assay: Human MRP2 inhibition was tested using a BD Gentest Transporter Vesicle Assay Kit. Inside-out vesicles were prepared from insect Sf9 cells infected with baculovirus expressing hMRP2. […] The percent remaining of ATP dependent uptake activity was calculated as uptake activity in the presence of inhibitor divided by the uptake activity in the absence of inhibitor.

In test [1] the test system is peripheral blood mononuclear cells (PBMC). The test is described as follows: Anti-proliferative or immunosuppressive activity, BrdU incorporation in PHA-stimulated PBMC. In kind it is cell-based. The conditions noted are these: PHA 3 μg/ml, 60 hour compound treatment; read-out: EMV PBMC IC50. The gist of the method:
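BrdU ELISA read-out of DNA synthesis in freshly isolated PBMCs (two donors, 30,000 cells/well, X-VIVO 15). T-cell proliferation triggered with phytohemagglutinin at 3 μg/ml.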
For orientation: Incorporation of labelled thymidine or its analogues reports DNA synthesis.

The target of a further test is cyclophilin B (CypB) (Homo sapiens (Human), UniProt P23284). The test can be described thus: Inhibitor binding to cyclophilin proteins by SPR, CypB. The note with it: 1:1 binding model. Set-up: unit not given here. The gist of the method: (§1)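 SPR, single-cycle kinetics. Avi-tagged, mono-biotinylated protein on Biotin CAPture chip; running buffer 10 mM HEPES pH 7.4, 150 mM NaCl, 0.05% P20, 3% DMSO. 1 min contacts at 50 μL/min, 10 min dissociation. kon/koff/KD from 1:1 fit.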
Sequence of cyclophilin B (CypB) (P23284 34-216): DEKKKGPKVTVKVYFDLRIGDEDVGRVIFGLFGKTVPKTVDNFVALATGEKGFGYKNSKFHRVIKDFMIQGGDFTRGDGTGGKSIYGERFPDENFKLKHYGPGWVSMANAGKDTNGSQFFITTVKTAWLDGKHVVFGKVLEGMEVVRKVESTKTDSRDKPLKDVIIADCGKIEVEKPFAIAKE
For orientation: In SPR one partner is held on a chip, and binding of the other changes the refractive index at the surface.

Test [2] concerns the target organic anion transporting polypeptide 1B1 (OATP1B1) (Homo sapiens (Human), UniProt Q9Y6L6). The test is described as follows: OATP assay in CHO-OATP1B1 cells.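 Further: inhibition of probe substrate uptake into the cells, ten minutes exposure, accumulated substrate read by fluorescence once cells were lysed.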
The target in the next test is cyclophilin A (CypA) (Homo sapiens (Human), UniProt P62937). The test is described as follows: Inhibitor binding to cyclophilin proteins by SPR, CypA.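 Further: Single-cycle kinetics on a Biacore T200, compound injected at several concentrations for 1 min each at 50 µL/min, then 10 min dissociation, in HEPES pH 7.4 buffer with 3% DMSO.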 Also on record: unit not given here. The note with it: 1:1 binding model.
Sequence of cyclophilin A (CypA) (P62937 whole entry): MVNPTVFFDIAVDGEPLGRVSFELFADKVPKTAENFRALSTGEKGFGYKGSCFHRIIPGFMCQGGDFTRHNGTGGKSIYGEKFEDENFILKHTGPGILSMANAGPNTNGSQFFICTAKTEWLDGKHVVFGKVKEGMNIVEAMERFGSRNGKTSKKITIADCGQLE
In the next test the target is CypF (Homo sapiens (Human), UniProt P30405). The test is described as follows: Inhibitor binding to cyclophilin proteins by SPR, CypF. The conditions noted are these: 1:1 binding model. The gist of the method:
as §1

For a further test, the target named is CYP3A4 (Homo sapiens (Human), UniProt P08684). The test is described as follows: Time-dependent inhibition of CYP3A4.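 Further: Two-step in vitro assay, kobs derived from residual CYP3A4 activity versus preincubation time per concentration, then kinact and KI by nonlinear fit of kobs against concentration.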
Sequence of CYP3A4 (P08684 whole entry): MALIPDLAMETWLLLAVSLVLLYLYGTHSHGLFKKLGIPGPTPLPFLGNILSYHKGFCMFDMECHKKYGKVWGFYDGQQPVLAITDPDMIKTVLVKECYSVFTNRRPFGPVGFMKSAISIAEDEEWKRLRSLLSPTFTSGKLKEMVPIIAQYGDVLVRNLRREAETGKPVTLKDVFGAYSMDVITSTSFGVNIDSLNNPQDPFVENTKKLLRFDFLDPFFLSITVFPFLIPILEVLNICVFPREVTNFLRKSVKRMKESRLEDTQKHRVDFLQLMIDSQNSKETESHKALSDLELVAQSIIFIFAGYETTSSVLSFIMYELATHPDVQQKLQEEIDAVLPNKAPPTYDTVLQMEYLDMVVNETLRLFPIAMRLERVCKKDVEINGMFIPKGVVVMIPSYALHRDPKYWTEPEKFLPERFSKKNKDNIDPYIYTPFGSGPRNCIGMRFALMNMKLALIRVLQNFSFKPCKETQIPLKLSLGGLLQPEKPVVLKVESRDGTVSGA
Test [3] deals with genotype 1b subgenomic HCV replicon in Huh7.5 cells. In kind it is cell-based, hepatitis C virus. The conditions noted are these: genotype 1b replicon, 72 h incubation; read-out: RPLN-1b IC50. The gist of the method: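 Replicon inhibition read as renilla luciferase signal versus DMSO controls after 72 h incubation, in Huh7.5 cells harbouring a genotype 1b subgenomic replicon; medium phenol red-free DMEM lacking G418. CC50 determined in parallel via Cell Titer-Glo.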

Starred links: 1 amine or outer side, 2 acyl side, 3 side chain; linkers in the order of their positions; H or OH if unused. Non-standard residues stand in square brackets, D forms with d. Residues, ends and D or L forms follow the SMILES beside them. X4 = C[C@H](CS(C)(=O)=O)[C@@H](C(=O)[*:2])N(C)[*:1]; X3 = C[C@H](CN1CCOCC1)[C@@H](C(=O)[*:2])N(C)[*:1]; MeBmt = C/C=C/C[C@@H](C)[C@@H](O)[C@H](NC)C(=O)O; NMeL = CN[C@@H](CC(C)C)C(=O)O; NMeV = CN[C@H](C(=O)O)C(C)C; dNMeA = CN[C@H](C)C(=O)O; Abu = CC[C@H](N)C(=O)O

Sequence of Human MRP2 (Q92887 whole entry): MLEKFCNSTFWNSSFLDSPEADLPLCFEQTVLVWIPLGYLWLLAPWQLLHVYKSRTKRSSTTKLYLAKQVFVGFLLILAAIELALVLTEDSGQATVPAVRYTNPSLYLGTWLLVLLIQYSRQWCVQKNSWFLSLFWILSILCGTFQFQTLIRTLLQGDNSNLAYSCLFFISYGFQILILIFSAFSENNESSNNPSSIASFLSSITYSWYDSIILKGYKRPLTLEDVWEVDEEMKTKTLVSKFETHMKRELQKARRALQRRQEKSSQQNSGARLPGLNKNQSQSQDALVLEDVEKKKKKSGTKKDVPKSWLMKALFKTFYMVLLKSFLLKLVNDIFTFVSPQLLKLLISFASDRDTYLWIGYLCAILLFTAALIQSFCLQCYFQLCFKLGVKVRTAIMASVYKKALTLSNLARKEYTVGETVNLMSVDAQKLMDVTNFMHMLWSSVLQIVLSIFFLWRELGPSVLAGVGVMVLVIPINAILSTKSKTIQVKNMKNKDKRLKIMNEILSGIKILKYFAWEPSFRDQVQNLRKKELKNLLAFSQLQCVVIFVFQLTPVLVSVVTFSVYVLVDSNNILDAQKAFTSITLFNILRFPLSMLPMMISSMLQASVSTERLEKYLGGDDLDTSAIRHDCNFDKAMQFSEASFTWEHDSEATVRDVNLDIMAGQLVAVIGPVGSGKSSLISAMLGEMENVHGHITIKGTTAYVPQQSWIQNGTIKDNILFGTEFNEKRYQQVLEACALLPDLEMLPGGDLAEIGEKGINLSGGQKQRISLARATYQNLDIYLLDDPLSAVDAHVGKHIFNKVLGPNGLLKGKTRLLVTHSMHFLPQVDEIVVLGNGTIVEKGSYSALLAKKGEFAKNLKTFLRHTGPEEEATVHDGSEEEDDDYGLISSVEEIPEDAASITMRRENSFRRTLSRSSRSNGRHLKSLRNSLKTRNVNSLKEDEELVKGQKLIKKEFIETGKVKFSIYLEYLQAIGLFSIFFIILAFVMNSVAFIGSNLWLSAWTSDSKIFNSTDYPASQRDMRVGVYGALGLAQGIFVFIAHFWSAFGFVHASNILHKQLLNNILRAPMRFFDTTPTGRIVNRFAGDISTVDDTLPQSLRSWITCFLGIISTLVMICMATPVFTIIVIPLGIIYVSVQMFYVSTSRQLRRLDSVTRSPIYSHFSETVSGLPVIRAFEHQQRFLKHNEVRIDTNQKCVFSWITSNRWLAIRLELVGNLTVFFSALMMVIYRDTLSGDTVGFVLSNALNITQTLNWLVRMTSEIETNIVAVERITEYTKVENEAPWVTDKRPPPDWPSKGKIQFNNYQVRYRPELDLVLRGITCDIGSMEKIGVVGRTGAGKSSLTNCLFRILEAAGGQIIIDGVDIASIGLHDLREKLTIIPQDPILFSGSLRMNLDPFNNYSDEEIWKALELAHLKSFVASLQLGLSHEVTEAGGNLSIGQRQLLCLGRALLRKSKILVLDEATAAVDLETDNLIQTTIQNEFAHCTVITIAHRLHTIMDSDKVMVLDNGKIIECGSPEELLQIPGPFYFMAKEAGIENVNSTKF
Sequence of organic anion transporting polypeptide 1B1 (OATP1B1) (Q9Y6L6 whole entry): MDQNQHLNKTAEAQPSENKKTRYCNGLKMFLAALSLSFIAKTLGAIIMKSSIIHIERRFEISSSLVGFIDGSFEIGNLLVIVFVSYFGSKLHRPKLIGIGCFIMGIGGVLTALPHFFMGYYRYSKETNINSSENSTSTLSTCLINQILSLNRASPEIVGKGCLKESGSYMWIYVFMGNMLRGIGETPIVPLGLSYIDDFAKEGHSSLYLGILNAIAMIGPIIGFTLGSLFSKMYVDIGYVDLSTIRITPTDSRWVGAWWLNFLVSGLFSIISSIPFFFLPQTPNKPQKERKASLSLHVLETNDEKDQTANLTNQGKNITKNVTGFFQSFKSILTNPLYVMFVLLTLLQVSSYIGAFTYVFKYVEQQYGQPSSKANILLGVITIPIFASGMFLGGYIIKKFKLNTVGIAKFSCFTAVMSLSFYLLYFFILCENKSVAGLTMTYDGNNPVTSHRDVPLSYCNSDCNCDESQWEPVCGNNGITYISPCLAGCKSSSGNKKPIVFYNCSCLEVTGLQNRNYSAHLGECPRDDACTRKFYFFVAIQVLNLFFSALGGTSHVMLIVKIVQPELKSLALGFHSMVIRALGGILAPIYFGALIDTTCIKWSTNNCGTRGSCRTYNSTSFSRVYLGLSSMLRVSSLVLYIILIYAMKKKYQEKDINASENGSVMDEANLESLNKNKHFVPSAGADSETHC
Sequence of CypF (P30405 30-207): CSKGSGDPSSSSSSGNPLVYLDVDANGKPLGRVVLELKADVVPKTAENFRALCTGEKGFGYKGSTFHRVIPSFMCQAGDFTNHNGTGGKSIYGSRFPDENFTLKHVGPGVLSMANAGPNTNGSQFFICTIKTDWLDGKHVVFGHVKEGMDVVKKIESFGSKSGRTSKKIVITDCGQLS

Consider `C=CC[C@@H]1/C=C(\C)C[C@H](C)C[C@H](OC)[C@H]2O[C@@](O)(C(=O)C(=O)N3CCCC[C@H]3C(=O)O[C@H](/C(C)=C/[C@@H]3CC[C@@H](O)[C@H](OC)C3)[C@H](C)[C@@H](O)CC1=O)[C@H](C)C[C@@H]2OC` [FK506], for which the “effect on HCV replication” value in the test on HCV replicon is reported as “did not have significant effect”.

With `C/C=C/C[C@@H](C)[C@@H](O)[C@H]1C(=O)N[C@@H](CC)C(=O)N(C)CC(=O)N(C)[C@@H]([C@@H](C)CC)C(=O)N[C@@H](C(C)C)C(=O)N(C)[C@@H](CC(C)C)C(=O)N[C@@H](C)C(=O)N[C@H](C)C(=O)N(C)[C@@H](CC(C)C)C(=O)N(C)[C@@H](CC(C)C)C(=O)N(C)[C@@H](C(C)C)C(=O)N1C` [NIM811], in the test with HBV in HepG2215 cells, the “reduction of HBsAg secretion from cells compared with controls” value was “about 50%”.

For `C/C=C/C[C@@H](C)[C@@H](O)[C@H]1C(=O)N[C@@H](CC)C(=O)N(C)[C@H](C)C(=O)N(CC)[C@@H](C(C)C)C(=O)N[C@@H](C(C)C)C(=O)N(C)[C@@H](CC(C)C)C(=O)N[C@@H](C)C(=O)N[C@H](C)C(=O)N(C)[C@@H](CC(C)C)C(=O)N(C)[C@@H](CC(C)C)C(=O)N(C)[C@@H](C(C)C)C(=O)N1C` [DEBIO-025], the “mean hepatitis C load” value in the test on hepatitis C virus is “significantly decreased”.

With `C/C=C/C[C@@H](C)[C@@H](O)[C@H]1C(=O)N[C@@H](CC)C(=O)N(C)[C@H](C)C(=O)N(CC)[C@@H](C(C)C)C(=O)N[C@@H](C(C)C)C(=O)N(C)[C@@H](CC(C)C)C(=O)N[C@@H](C)C(=O)N[C@H](C)C(=O)N(C)[C@@H](CC(C)C)C(=O)N(C)[C@@H](CC(C)C)C(=O)N(C)[C@@H](C(C)C)C(=O)N1C` [alisporivir], the “reduction in intracellular HBV DNA levels” value in the test on HBV in HepG2215 cells (5.0 mcg/mL, 72 hours) was 10 fold. Moreover, the “reduction of HBsAg secretion from cells compared with controls” value in the test on HBV in HepG2215 cells is reported as “about 50%”.

What is called IC50 is the concentration that inhibits the measured activity by half. `C/C=C/C[C@@H](C)[C@@H](O)[C@H]1C(=O)N[C@@H](CC)C(=O)N(C)[C@H](C)C(=O)N(C)[C@@H]([C@H](C)CN2CCOCC2)C(=O)N[C@@H](C(C)C)C(=O)N(C)[C@@H](CC(C)C)C(=O)N[C@@H](C)C(=O)N[C@H](C)C(=O)N(C)[C@@H](CC(C)C)C(=O)N(C)[C@@H](CC(C)C)C(=O)N(C)[C@@H](C(C)C)C(=O)N1C` [Compound 2.5.2, 3-[D-Ala]-4-[(2S,3R)-3-methyl-2-(methylamino)-4-morpholinobutanoyl]-cyclosporin] (cyclo(A[dA][NMeL][NMeL][NMeV][MeBmt][Abu][dNMeA][X3]V[NMeL])): the IC50 against Human MRP2 came out at 18 µM; in test [1], 6.3 µM; in test [2], 8.2 µM; in [3] it was 0.1 µM. Moreover, at cyclophilin B (CypB), the “CypB Kd” value amounted to 2.9. Moreover, the “CypA Kd” value at cyclophilin A (CypA) was 4.3. The CypF Kd on CypF was 0.0022 µM. This molecule gave a Ki on CYP3A4 of over 50 µM.

Turning to `C/C=C/C[C@@H](C)[C@@H](O)[C@H]1C(=O)N[C@@H](CC)C(=O)N(C)[C@H](C)C(=O)N(C)[C@@H]([C@H](C)CS(C)(=O)=O)C(=O)N[C@@H](C(C)C)C(=O)N(C)[C@@H](CC(C)C)C(=O)N[C@@H](C)C(=O)N[C@H](C)C(=O)N(C)[C@@H](CC(C)C)C(=O)N(C)[C@@H](CC(C)C)C(=O)N(C)[C@@H](C(C)C)C(=O)N1C` [Compound 2.4, 3-[D-Ala]-4-[(2S,3S)-3-methyl-2-(methylamino)-4-(methylsulfonyl)butanoyl]-cyclosporin] (cyclo(A[dA][NMeL][NMeL][NMeV][MeBmt][Abu][dNMeA][X4]V[NMeL])), the 50% inhibitory concentration (IC50) is 9 µM against Human MRP2, 1.9 µM in test [1], 1.4 µM in test [2] and 0.095 µM in test [3]. Moreover, on cyclophilin B (CypB), the “CypB Kd” value was determined as 0.6. Besides, the “CypA Kd” value on cyclophilin A (CypA) was found to be 1.5. On CypF, this molecule yielded a CypF Kd of 0.0006 µM. Further, the Ki on CYP3A4 was over 50 µM.

These data come from patent publication US9566312B2, “Cyclic peptides and use as medicines” (priority 2012, dated 2017).
